Values joined by “and” are separate entries in the source; they are usually repeats but may differ in a detail not shown here. Identical values can stand only once.
Assay: xn = mol fraction of the nth substance listed
Conditions: Gas, Frequency=0.05 MHz, Linear variable-path acoustic interferometer

FC(F)(F)C(F)(F)C(F)(F)F [octafluoropropane] + FC(F)(F)C(F)(F)F
Conditions	speed of sound
258.87 K, 181 kPa, x2 = 0	104.06 m/s
261.04 K, 214 kPa, x2 = 0.146	106.6 m/s
261.17 K, 183 kPa, x2 = 0	104.66 m/s
263.69 K, 217 kPa, x2 = 0.146	107.31 m/s
266.22 K, 219 kPa, x2 = 0.146	107.96 m/s
268.73 K, 189 kPa, x2 = 0	106.57 m/s
268.76 K, 222 kPa, x2 = 0.146	108.61 m/s
270.28 K, 190 kPa, x2 = 0	106.94 m/s
271.52 K, 214 kPa, x2 = 0.11	108.77 m/s
271.54 K, 224 kPa, x2 = 0.146	109.31 m/s
273.74 K, 193 kPa, x2 = 0	107.79 m/s
273.82 K, 227 kPa, x2 = 0.146	109.89 m/s
273.86 K, 202 kPa, x2 = 0.048	108.5 m/s
273.88 K, 216 kPa, x2 = 0.11	109.36 m/s
273.9 K, 216 kPa, x2 = 0.11	109.35 m/s
276.23 K, 195 kPa, x2 = 0	108.4 m/s
276.3 K, 219 kPa, x2 = 0.11	109.94 m/s
276.35 K, 229 kPa, x2 = 0.146	110.52 m/s
278.61 K, 206 kPa, x2 = 0.048	109.65 m/s
278.75 K, 197 kPa, x2 = 0	109 m/s
279.06 K, 231 kPa, x2 = 0.146	111.21 m/s
281.01 K, 208 kPa, x2 = 0.048	110.21 m/s
281.09 K, 223 kPa, x2 = 0.11	111.13 m/s
281.24 K, 199 kPa, x2 = 0	109.59 m/s
281.35 K, 233 kPa, x2 = 0.146	111.76 m/s
281.94 K, 224 kPa, x2 = 0.11	111.33 m/s
283.42 K, 225 kPa, x2 = 0.11	111.69 m/s
283.48 K, 210 kPa, x2 = 0.048	110.83 m/s
283.81 K, 201 kPa, x2 = 0	110.19 m/s
284.05 K, 236 kPa, x2 = 0.146	112.44 m/s
285.85 K, 212 kPa, x2 = 0.048	111.38 m/s
285.87 K, 212 kPa, x2 = 0.048	111.39 m/s
285.92 K, 227 kPa, x2 = 0.11	112.29 m/s
286.31 K, 203 kPa, x2 = 0	110.78 m/s
286.39 K, 238 kPa, x2 = 0.146	112.99 m/s
288.79 K, 205 kPa, x2 = 0	111.35 m/s
288.96 K, 241 kPa, x2 = 0.146	113.61 m/s
290.79 K, 231 kPa, x2 = 0.11	113.46 m/s
291.2 K, 207 kPa, x2 = 0	111.92 m/s
291.22 K, 217 kPa, x2 = 0.048	112.64 m/s
291.37 K, 243 kPa, x2 = 0.146	114.18 m/s
293.19 K, 218 kPa, x2 = 0.048	113.11 m/s
293.86 K, 245 kPa, x2 = 0.146	114.77 m/s
294.01 K, 245 kPa, x2 = 0.146	114.81 m/s
294.82 K, 246 kPa, x2 = 0.146	115.01 m/s
294.96 K, 235 kPa, x2 = 0.11	114.43 m/s
295.16 K, 235 kPa, x2 = 0.11	114.49 m/s
295.22 K, 220 kPa, x2 = 0.048	113.57 m/s
295.26 K, 210 kPa, x2 = 0	112.82 m/s
295.26 K, 220 kPa, x2 = 0.048	113.58 m/s
295.28 K, 220 kPa, x2 = 0.048	113.59 m/s
296.26 K, 247 kPa, x2 = 0.146	115.34 m/s
297.13 K, 248 kPa, x2 = 0.146	115.54 m/s and 115.55 m/s
298.69 K, 250 kPa, x2 = 0.146	115.9 m/s
300.46 K, 224 kPa, x2 = 0.048	114.77 m/s
301.15 K, 215 kPa, x2 = 0	114.22 m/s
301.17 K, 252 kPa, x2 = 0.146	116.47 m/s
302.82 K, 226 kPa, x2 = 0.048	115.32 m/s
302.91 K, 242 kPa, x2 = 0.11	116.26 m/s
303.66 K, 254 kPa, x2 = 0.146	117.06 m/s
303.67 K, 216 kPa, x2 = 0	114.79 m/s
303.69 K, 217 kPa, x2 = 0	114.78 m/s
306.23 K, 219 kPa, x2 = 0	115.37 m/s
307.6 K, 230 kPa, x2 = 0.048	116.4 m/s
308.64 K, 259 kPa, x2 = 0.146	118.2 m/s
311.15 K, 261 kPa, x2 = 0.146	118.77 m/s
311.27 K, 223 kPa, x2 = 0	116.48 m/s
312.3 K, 234 kPa, x2 = 0.048	117.45 m/s
312.47 K, 251 kPa, x2 = 0.11	118.45 m/s
313.65 K, 264 kPa, x2 = 0.146	119.34 m/s
314.99 K, 253 kPa, x2 = 0.11	119.04 m/s
315.91 K, 237 kPa, x2 = 0.048	118.26 m/s
316.18 K, 266 kPa, x2 = 0.146	119.91 m/s
316.26 K, 226 kPa, x2 = 0	117.58 m/s
317.39 K, 255 kPa, x2 = 0.11	119.56 m/s
318.68 K, 268 kPa, x2 = 0.146	120.47 m/s
319.74 K, 257 kPa, x2 = 0.11	120.07 m/s
321.23 K, 230 kPa, x2 = 0	118.64 m/s
322.15 K, 259 kPa, x2 = 0.11	120.6 m/s
323.51 K, 273 kPa, x2 = 0.146	121.55 m/s
323.74 K, 232 kPa, x2 = 0	119.18 m/s

From the NIST ThermoML archive (doi:10.1016/j.fluid.2012.10.002)
